Laboratory results from US20220204497A1, “NOVEL COMPOUND HAVING ANTICANCER ACTIVITY, AND METHOD FOR PRODUCING SAME” (MEDICINAL BIOCONVERGENCE RESEARCH CENTER, priority 2019, published 2022).

What was measured:
A549 cells = assay: Cell viability by MTT method in A549 cells; assay type: cell-based; set-up: concentration or dose not given beside the values; conditions: 72 hours treatment
H460 cells [1] = assay: In vivo cancer growth inhibition in H460 xenograft animal model; set-up: species or system BALB/cAnCr female rats; conditions: 50 mg/kg intraperitoneally once every 2 days, 16 days
Protocol: FIG. 4 is a result of testing the cancer cell growth inhibitory effect of compound No. 55 and compound No. 89 among the compounds of the Formula 1 according to the present invention and the tumor distribution of the drug in the H460 xenograft animal model. Taxol was used as a positive control.
H460 cells (2×10^7) were subcutaneously implanted in 7-week-old BALB/cAnCr female […], and then Compound No. 55 or Compound No. 89 (50 mg/kg) and Taxol (10 mg/kg) were administered intraperitoneally once every 2 days. The drug was administered for 16 days, and the size of the tumor and the weight of the animal were measured during administration. After 16 days, the animals were sacrificed and the size and weight of the removed tumors were measured.

AIMP2-DX2 = biological target: T1, AIMP2-DX2 (Homo sapiens, UniProt Q13155); assay: DX2-nanoluciferase assay (DX2 expression change) in transfected A549 cells; conditions: A549, 4 h; for inhibition at 10 µM: read-out: DX-Nanoluciferase activity (10 μM), 10 μM, 4 hours treatment, A549 cells transfected with nanoluciferase-DX2
T1 sequence (Q13155 1-251 isoform Q13155-2): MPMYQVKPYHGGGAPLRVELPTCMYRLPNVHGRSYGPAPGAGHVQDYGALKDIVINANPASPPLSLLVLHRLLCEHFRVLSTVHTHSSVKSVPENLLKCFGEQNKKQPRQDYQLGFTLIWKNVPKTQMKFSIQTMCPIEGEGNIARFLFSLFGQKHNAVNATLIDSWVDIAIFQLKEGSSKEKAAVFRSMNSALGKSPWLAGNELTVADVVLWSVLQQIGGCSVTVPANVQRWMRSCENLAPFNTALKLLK
Protocol: After cloning DX2 into a plasmid expressing nanoluciferase, the plasmid was transfected into A549 cells. Transfected cells were seeded 1×10^4 per well in a 96-well plate and stabilized for 12 hours. […] Cell viability was measured by the MTT method after 72 hours of treatment with each concentration of the compound in A549 cells.

H460 cells [2] = assay: In vivo anti-cancer efficacy in mice transplanted with H460 cells; set-up: species or system mouse; conditions: 50 mg/kg intraperitoneally once every two days, 15 days
Protocol: FIGS. 3a to 3d are the results of observing the tumor growth while administering compound No. 63 (50 mg/kg) once every two days intraperitoneally for a total of 15 days to a mouse transplanted with H460 cells. (FIG. 3a: macroscopic observation of each mouse and tumor after the end of administration, FIG. 3b: tumor growth curve over time, FIG. 3c: the weight of each tumor obtained at the end of administration, FIG. 3d: change in body weight of animals during administration period).
Next, the anti-cancer efficacy of compound No. 63 was evaluated in a mouse model transplanted with H460 cells.
Specifically, the compound No. 63 was intraperitoneally administered to mice transplanted with H460 cells at 50 mg/kg, once every two days for a total of 15 days.

SMILES	Cell Viability (% inhibition) (A549) (A549 cells) [%]	inhibition at 10 µM (AIMP2-DX2) [%]	other results
COc1ccc(-c2csc(NC(=O)[C@H](CC(C)C)NS(=O)(=O)c3ccc(C)cc3)n2)cc1 [Compound 55, (S)—N-(4-(4-methoxyphenyl)thiazol-2-yl)-4-methyl-2-(4-methylphenylsulfonamido)pentanamide]	89.25 ± 2.03	–	body weight of the animal during treatment (side effect) (H460 cells [1]): no change in the body weight; cancer growth inhibitory effect (H460 cells [1]; H460 xenograft): about 50%; inhibition at 40 µM (AIMP2-DX2; read-out: DX-Nanoluciferase activity (40 μM), 40 μM, 4 hours treatment, A549 cells transfected with nanoluciferase-DX2, inhibitory effect on AIMP2-DX2 expression): 70.3 ± 3.23%
COc1ccc(-c2csc(NC(=O)[C@H](Cc3c[nH]c4ccccc34)NS(=O)(=O)c3ccc(C)cc3)n2)cc1 [Compound 63, (S)-3-(1H-indol-3-yl)-N-(4-(4-methoxyphenyl)thiazol-2-yl)-2-(4-methylphenylsulfonamido)propanamide]	86.53 ± 1.35	–	body weight of the animals during administration (H460 cells [2]): no change in the body weight; tumor growth (H460 cells [2]; H460 transplanted mice): significantly inhibited the growth of tumors
COc1ccc(-c2csc(NC(=O)[C@H](Cc3c[nH]c4ccc(O)cc34)NS(=O)(=O)c3ccc(Br)cc3)n2)cc1 [Compound 217, (S)-2-(4-Bromophenylsulfonamido)-3-(5-hydroxy-1H-indol-3-yl)-N-(4-(4-methoxyphenyl)thiazol-2-yl)propanamide]	89.41 ± 0.79	21.3	–
COc1ccc(-c2csc(NC(=O)[C@H](Cc3c[nH]c4ccc(C)cc34)NS(=O)(=O)c3ccc(Br)cc3)n2)cc1 [Compound 218, (S)-2-(4-Bromophenylsulfonamido)-N-(4-(4-methoxyphenyl)thiazol-2-yl)-3-(5-methyl-1H-indol-3-yl)propanamide]	90.98 ± 1	34.8	–
COc1ccc(-c2csc(NC(=O)[C@H](Cc3c[nH]c4ccc(F)cc34)NS(=O)(=O)c3ccc(Br)cc3)n2)cc1 [Compound 219, (S)-2-(4-Bromophenylsulfonamido)-3-(5-fluoro-1H-indol-3-yl)-N-(4-(4-methoxyphenyl)thiazol-2-yl)propanamide]	95.58 ± 0.08	46.9 ± 8.36	–
Cc1ccc(S(=O)(=O)N[C@@H](Cc2c[nH]c3ccccc23)C(=O)NCCc2ccc(C(=O)O)cc2)cc1 [Compound 220, (S)-4-(2-(3-(1H-indol-3-yl)-2-(4-methylphenylsulfonamido)propanamido)ethyl)benzoic acid]	−11.09 ± 8.4	15.9 ± 19.4	–
Cc1ccc(S(=O)(=O)N[C@@H](Cc2c[nH]c3ccccc23)C(=O)NCCc2ccc(Br)cc2)cc1 [Compound 221, (S)—N-(4-bromophenethyl)-3-(1H-indol-3-yl)-2-(4-methylphenylsulfonamido)propanamide]	97.31 ± 0.8	40.1 ± 3.09	–
Cc1ccc(S(=O)(=O)N[C@@H](Cc2c[nH]c3ccccc23)C(=O)NCCc2c[nH]c3ccccc23)cc1 [Compound 222, (S)—N-(2-(1H-indol-3-yl)ethyl)-3-(1H-indol-3-yl)-2-(4-methylphenylsulfonamido)propanamide]	91.05 ± 1.38	31.3 ± 14.7	–
Cc1ccc(CCNC(=O)[C@H](Cc2c[nH]c3ccccc23)NS(=O)(=O)c2ccc(C)cc2)cc1 [Compound 223, (S)-3-(1H-indol-3-yl)-N-(4-methylphenethyl)-2-(4-methylphenylsulfonamido)propanamide]	93.28 ± 1.51	34.9 ± 11.8	–
CCOC(=O)C(Cc1c[nH]c2ccccc12)NC(=O)[C@H](Cc1c[nH]c2ccccc12)NS(=O)(=O)c1ccc(C)cc1 (stereo partly drawn) [Compound 224, Ethyl 2-((S)-3-(1H-indol-3-yl)-2-(4-methylphenylsulfonamido)propanamido)-3-(1H-indol-3-yl)propanoate]	93.83 ± 0.34	42.7 ± 8.97	–
Cc1ccc(S(=O)(=O)N[C@@H](Cc2c[nH]c3ccccc23)C(=O)NCCc2ccc(Cl)cc2)cc1 [Compound 225, (S)—N-(4-chlorophenethyl)-3-(1H-indol-3-yl)-2-(4-methylphenylsulfonamido)propanamide]	95.8 ± 0.48	88.7 ± 6.08	–
Cc1ccc(S(=O)(=O)N[C@@H](Cc2c[nH]c3ccccc23)C(=O)NC(Cc2c[nH]c3ccccc23)C(=O)O)cc1 (stereo partly drawn) [Compound 226, 2-((S)-3-(1H-indol-3-yl)-2-(4-methylphenylsulfonamido)propanamido)-3-(1H-Indol-3-yl)propanoic acid]	1.11 ± 7.23	38.1 ± 14.9	–
